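Dose response: 5 concentrations. Exposure: 48 h. Format: 96-well plates. Endpoint: linear interpolation; highest concentration if not reached. At the TGI there is no net growth.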 Where a SMILES comes first, the peptide text is derived from it. The star is where a group is joined. Fmoc = O=C(OCC1c2ccccc2-c2ccccc21)*; Boc = CC(C)(C)OC(=O)*
What was measured:
Assay in all cases: NCI-60 cell line screen, 48 h
A498 renal = test system: A498 renal
A549 NSCLC = test system: A549 NSCLC
HOP-92 NSCLC = test system: HOP-92 NSCLC
HS 578T breast = test system: HS 578T breast
KM12 colon = test system: KM12 colon
MCF7 breast = test system: MCF7 breast
MDA-MB-231 breast = test system: MDA-MB-231 breast
NCI-H460 lung = test system: NCI-H460 lung
OVCAR-4 ovarian = test system: OVCAR-4 ovarian
OVCAR-8 ovarian = test system: OVCAR-8 ovarian
RXF 393 renal = test system: RXF 393 renal
SK-MEL-28 melanoma = test system: SK-MEL-28 melanoma
SK-MEL-5 melanoma = test system: SK-MEL-5 melanoma
SW-620 colon = test system: SW-620 colon

SMILES	TGI (A498 renal) [µM]	TGI (A549 NSCLC) [µM]	TGI (HOP-92 NSCLC) [µM]	TGI (HS 578T breast) [µM]	TGI (KM12 colon) [µM]	TGI (MCF7 breast) [µM]	TGI (MDA-MB-231 breast) [µM]	TGI (NCI-H460 lung) [µM]	TGI (OVCAR-4 ovarian) [µM]	TGI (OVCAR-8 ovarian) [µM]	TGI (RXF 393 renal) [µM]	TGI (SK-MEL-28 melanoma) [µM]	TGI (SK-MEL-5 melanoma) [µM]	TGI (SW-620 colon) [µM]
c1ccc2c(c1)CCc1[nH]c3c(c1-2)-c1ccccc1CC3	> 100	> 100	> 100	> 100	> 100	> 100	> 100	> 100	> 100	> 100	> 100	> 100	> 100	> 100
CC1CCC2(CC1)NC1=C(CC(C)CC1)C1=C2CC(C)CC1 (stereo not drawn)	> 100	> 100	39.4	63.2	40.2	34.5	53.9	75.7	94.2	65.6	30.7	35	24.4	37.7
CCOP(=O)(OCC)/C(C#N)=C/c1cnc[nH]1	> 100	> 100	> 100	> 100	> 100	> 100	> 100	> 100	> 100	> 100	> 100	> 100	> 100	> 100
CC(C)(C)OC(=O)NCCCCC(NC(=O)C(Cc1c[nH]c2ccccc12)NC(=O)OCC1c2ccccc2-c2ccccc21)C(=O)N1CCCC1C(=O)NCC(N)=O (stereo not drawn) (Fmoc-WK(Boc)PG-NH2; configuration not given here)	–	> 100	> 100	> 100	> 100	> 100	> 100	> 100	> 100	> 100	> 100	> 100	> 100	> 100
O=C(O)c1ccc(C2SCc3nc4ccccc4n32)cc1 (stereo not drawn)	> 100	> 100	> 100	> 100	> 100	> 100	> 100	> 100	> 100	> 100	> 100	> 100	> 100	> 100
CC(C)(C)c1cc2c(O)c(c1)Cc1cc(C(C)(C)C)cc(c1O)Cc1cc(C(C)(C)C)cc(c1O)Cc1cc(C(C)(C)C)cc(c1O)Cc1cc(C(C)(C)C)cc(c1O)Cc1cc(C(C)(C)C)cc(c1O)Cc1cc(C(C)(C)C)cc(c1O)Cc1cc(C(C)(C)C)cc(c1O)C2	> 50	> 50	> 50	> 50	> 50	> 50	> 50	> 50	> 50	> 50	> 50	> 50	> 50	> 50
CCOC(=O)C(=O)/C(=C/N1C(=O)CC(=O)NC1=S)C(=O)OCC	> 100	> 100	> 92.9	> 100	> 100	> 100	> 100	> 100	> 100	> 100	> 100	> 100	> 100	> 100
Fc1ccc(-c2sc(-c3cccs3)cc2Cc2cccs2)cc1	> 100	> 100	> 100	> 100	> 100	> 100	> 100	> 100	> 100	> 100	> 100	> 100	> 100	> 100
COc1cccc(N(CN2C(=O)CCC2C(=O)O)C(C)=O)c1 (stereo not drawn)	> 100	> 100	> 100	> 100	> 100	> 100	> 100	> 100	> 100	> 100	> 100	> 100	> 100	> 100
CCOC(=O)c1c2c(c(O)c3ccccc3c(O)n(Cc3ccccc3)c1C)C(=O)C=CC2=O	> 100	> 100	> 100	> 100	> 100	0.769	> 100	> 100	> 100	> 100	75.9	> 100	> 100	> 100
CN(c1cn(C2CC[C@@H](CO)O2)c(=O)[nH]c1=O)C1CCCCC1 (stereo partly drawn)	> 100	> 100	> 100	> 100	> 100	> 100	> 100	> 100	> 100	> 100	> 100	> 100	> 100	> 100
CN1CCC2(CC1)C(=NC1CCCCC1)NC(=S)N2c1ccccc1	> 100	> 100	> 100	88.3	> 100	> 100	> 100	> 100	> 100	> 100	> 100	> 100	> 100	> 100
COC(=O)C1=C(C)C=C(N2CCOCC2)C(C(=O)OC)C1c1ccccc1 (stereo not drawn)	> 10	> 10	> 10	> 10	> 10	> 10	> 10	> 10	> 10	> 10	> 10	> 10	> 10	> 10
O=C1CC(=O)NC(=NNS(=O)(=O)c2ccccc2)N1	–	> 100	> 100	> 100	> 100	> 100	> 100	> 100	> 100	> 100	> 100	> 100	> 100	> 100
Cc1nnc(N)nc1/C=C/c1c(O)ccc2ccccc12	47.1	> 100	86.9	85	> 100	> 100	> 100	71.2	61.1	> 100	36.2	> 100	94.4	> 100
CC(=O)OC12c3ccccc3-c3ccccc3C1C1C(=O)OC(=O)C12 (stereo not drawn)	> 10	–	> 10	> 10	> 10	> 10	> 10	> 10	> 10	> 10	> 10	> 10	> 10	> 10

SMILES	TGI (A498 renal) [µM]	TGI (A549 NSCLC) [µM]	TGI (HOP-92 NSCLC) [µM]	TGI (HS 578T breast) [µM]	TGI (KM12 colon) [µM]	TGI (MCF7 breast) [µM]	TGI (MDA-MB-231 breast) [µM]	TGI (NCI-H460 lung) [µM]	TGI (OVCAR-4 ovarian) [µM]	TGI (OVCAR-8 ovarian) [µM]	TGI (RXF 393 renal) [µM]	TGI (SK-MEL-28 melanoma) [µM]	TGI (SK-MEL-5 melanoma) [µM]	TGI (SW-620 colon) [µM]
COC(=O)[C@H](Cc1ccc(OC(C)(C)C)cc1)N[C@H](C)C(=O)N[C@@H](Cc1ccccc1)C(=O)OCc1ccccc1	> 100	> 100	> 100	> 100	> 100	81.5	> 100	> 100	> 100	> 100	> 100	> 100	> 100	> 100
C=C(CN1CC2C[C@](C(=O)OC)(c3cc4ccccc4[nH]3)C1C(OC)C2OC)S(=O)(=O)c1ccccc1 (stereo partly drawn)	–	12.6	8.33	10.9	10.7	18.9	10.9	12	12.5	12.6	10.1	25.5	10.7	22.8
CCN(CC)Cc1c(/C=C\c2cc(OC)c(OC)c(OC)c2)ccc(OC)c1O	17.4	> 100	> 100	6.22	27.1	99.4	> 100	> 100	> 75.5	63.2	9.35	> 100	> 83.7	> 100
COc1ccccc1/C=C1\NC(=S)N(/C=C2\C(=O)Oc3ccccc3C2=O)C1=O	–	> 100	53.3	> 100	> 100	> 100	> 100	> 100	> 100	> 100	> 100	> 100	78.7	> 100
COC1OC(COC(=O)c2cc(O)c(O)c(O)c2)C(OC(=O)c2cc(O)c(O)c(O)c2)C(OC(=O)c2cc(O)c(O)c(O)c2)C1OC(=O)c1cc(O)c(O)c(O)c1 (stereo not drawn)	62.6	> 100	> 100	> 100	> 100	> 100	> 100	> 100	> 100	> 100	> 100	> 100	> 100	> 100
COC(=O)C1=C(C(=O)OC)SC2(S1)C(C(=O)OC)=C(C(=O)OC)Sc1c2ssc1=Nc1ccc(Cl)cc1	3.15	3.13	1.93	> 100	2.11	2.42	2.17	1.37	2.43	3.25	0.894	3.66	2.96	–
Nc1nc2c(ncn2Cc2ccccc2CO)c(=O)[nH]1	> 100	> 100	> 100	> 100	> 100	> 100	> 100	> 100	> 100	> 100	–	> 100	> 100	> 100
CCOC1Oc2ccccc2-c2nc(SC)ncc21 (stereo not drawn)	> 100	> 100	> 100	> 100	> 100	> 100	> 100	> 100	> 100	> 100	> 100	–	> 100	> 100
O=C(C/C(=N/O)c1cc(-c2ccccc2)no1)c1ccccc1	> 100	> 100	58	66.6	> 100	> 100	46.1	> 100	65.8	40.3	41.2	> 100	> 100	–
CC1=CC(=O)CC(C)(C)C1/C=C/C(C)=C/C=C/C(C)=C/C=C/C=C(C)/C=C/C=C(C)/C=C/C1=C(C)CC(O)CC1(C)C (stereo not drawn)	> 100	–	70.9	> 100	> 100	45.3	> 100	> 100	> 100	> 100	52.7	> 100	> 100	33.2
Cc1cc(S(=O)(=O)/N=C(/[N-]S(=O)(=O)c2ccc(Cl)cc2)[n+]2ccc(N(C)C)cc2)c(SCC(=O)O)cc1Cl	> 100	> 100	54.3	> 100	> 100	> 100	> 100	> 100	> 100	> 100	> 100	–	–	> 100
COc1ccc(/C=C2\CCC/C(=C\c3ccc(O)c(CN4CCCCC4)c3)C2=O)cc1	47.1	52.8	51.6	> 100	–	28.5	35.2	44.8	> 79.5	13.6	41	42.2	39.5	28.8
CCOC(=O)C(C(=S)SC)c1nn2c(=O)cc(C)nc2s1 (stereo not drawn)	–	37	43.9	44.9	65.3	33.1	37.9	35.6	58.4	35.5	39.8	34.8	35.1	37.2
O=C(O)CC(Sc1ccccc1)c1ccccc1 (stereo not drawn)	> 100	> 100	> 100	> 100	> 100	> 100	> 100	–	> 100	> 100	> 100	> 100	> 100	> 100
COc1ccc2cc(-c3nc(N)nc(N4N=C(C)CC4(C)C)n3)c(=N)oc2c1	82.1	> 100	60.5	66.4	30.6	44.2	44.8	35.6	50.5	49.8	58.9	31.8	30.1	–

Source: PubChem BioAssay (NCI)
